Data reported in US20210220331A1, “INHIBITORS OF IRES-MEDIATED PROTEIN SYNTHESIS” (The Regents of the University of California, priority 2016, published 2021).

Key:
Assay type in all cases: cell-based
LN229 cells [1] = assay: Apoptosis via Annexin V staining in LN229; details: LN229 cotreated with PP242 (50 nM) and analog (100 nM), 24 h
LN229 cells [2] = assay: Combination analysis with PP242 (XTT, combination index) in LN229; details: combination of PP242 and analog, CI=1.0 dose additive, CI<0.5 synergy, CI<0.3 strong synergy
Text: Fold decrease in either PP242-induced cyclin D1 or c-MYC IRES activity in LN229 relative to values obtained with the parent compound C11 are shown for each analog. […] CI=1.0 (dose additive), CI<0.5 (synergy), CI<0.3 (strong synergy).
The structure-activity relationships (SAR) for C11 and related compounds were investigated by synthesizing and testing the analogs listed in Table 1. […] The degree of apoptotic cell death following co-treatment with analog and PP242 was also monitored.

human cyclin D1 IRES = assay: Dicistronic IRES mRNA reporter assay (firefly luciferase), cyclin D1 IRES; details: LN229; relative to values obtained with parent compound C11
Experimental: (§1) Western blot and quantitative RT-PCR analyses were performed as previously described (19). For Western blotting, cells or tissues were lysed in RIPA (lysis) buffer containing protease inhibitor cocktail and phosSTOP phosphatase inhibitor cocktail (Roche) and extracts resolved by SDSPAGE. Proteins were transferred to PVDF membranes and incubated with the indicated antibodies. For IRES reporter assays, the indicated mRNA reporters were cotransfected into cells with pSVβ-galactosidase to normalize for transfection efficiency as described previously (16). Cells were harvested 18 h following transfection and Renilla, firefly and β-galactosidase activities determined using the Dual-Glo Luciferase and β-galactosidase assay systems (Promega).
(§2) (B) Schematic diagrams of the dicistronic constructs used in this study. Constructs used are pRF, pRCD1F, which contains the human cyclin D1 IRES, pRmycF, containing the human c-myc IRES, pRp27F, containing the human p27Kip1 IRES and pRECMVF, containing the IRES from encephalomyocarditis virus. (C) Relative Renilla and firefly luciferase activities obtained from LN229 GBM cells transfected with the indicated constructs in the absence or presence of the inhibitor C11. The mean and +SD are shown for three independent experiments. […] (D) RNA-pull down assays utilizing biotinylated cyclin D1 or c-MYC IRES RNAs. Cytoplasmic extracts of LN229 cells treated with C11 (50 nM) as indicated were incubated with biotinylated cyclin D1 or c-MYC IRES RNAs and precipitated with streptavidin-Sepharose beads. Input and bound fractions were analyzed by immunoblotting using hnRNP A1 antibodies. […] RT-PCR measurements were performed in quadruplicate and the mean and +S.D. are shown. […] (F) Top panel, LN229 cells were treated with C11 as indicated and RT-PCR splicing analysis for Max exon 5 performed as described in the Experimental Methods section. Middle panel, LN229 cells treated with C11 (50 nM) as indicated, were lysed and immunoprecipitated using either eIF-4E or control IgG antibodies. Bound CCND1 or c-MYC RNAs were detected via RT-PCR. The mean and +S.D. are shown for three independent experiments. Bottom panel, cyclin D1 and c-MYC protein levels from the indicated GBM cell lines in the absence or presence of C11 at 24 h following treatment. C11 specifically blocks c-Myc IRES-mediated translation initiation by disrupting the ITAF hnRNP A1-IRES interaction.
(§3) Several dicistronic IRES mRNA reporter constructs were utilized, shown in FIG. 1B, in which the indicated IRES sequences were inserted within the intercistronic region. LN229 cells transiently transfected with these constructs were assayed for Renilla and firefly luciferase activities, which are readouts of cap-dependent and IRES-mediated translation initiation, respectively (16). […]

human c-myc IRES = assay: Dicistronic IRES mRNA reporter assay (firefly luciferase), c-myc IRES; details: LN229; relative to values obtained with parent compound C11
Experimental: as §1, §2, §3

SMILES	% Apoptosis (100 nM) (LN229 cells [1])	CI ED50, 1:100 (combination index) (LN229 cells [2])	Cyclin D1 (decrease): fold decrease in PP242-induced cyclin D1 IRES activity (human cyclin D1 IRES)	c-myc (decrease): fold decrease in PP242-induced c-MYC IRES activity (human c-myc IRES)
COc1ccc(N2C(=O)C=CC2=O)cc1 [IRES-J008, 1-(4-Methoxyphenyl)-1H-pyrrole-2,5-dione]	75.7%	0.39	5.58 ± 0.16 fold	5.92 ± 0.10 fold
O=C1c2ccccc2C(=O)N1Nc1ccccc1 [IRES-J011, 2-(Phenylamino)isoindoline-1,3-dione]	22.8%	0.86	1.91 ± 0.1 fold	1.64 ± 0.18 fold
COc1ccc(CN2C(=O)C(c3ccccc3)=C(c3ccccc3)C2=O)c(OC)c1 [IRES-J005, 1-((2,4-Dimethoxyphenyl)methyl)-3,4-diphenyl-1H-pyrrole-2,5-dione]	23.5%	0.91	1.32 ± 0.14 fold	1.28 ± 0.16 fold
COc1ccc(CN2C(=O)C(C)=C(C)C2=O)c(OC)c1 [IRES-J004, 1-((2,4-Dimethoxyphenyl)methyl)-3,4-dimethyl-1H-pyrrole-2,5-dione]	24.8%	0.82	1.42 ± 0.07 fold	1.39 ± 0.11 fold
O=C1c2ccccc2C(=O)N1Cc1ccccc1 [IRES-J010, 2-(Phenylmethyl)isoindoline-1,3-dione]	19.7%	0.83	1.77 ± 0.16 fold	1.94 ± 0.25 fold
O=C1c2ccccc2C(=O)N1N(c1ccccc1)c1ccccc1 [IRES-J012, 2-(Diphenylamino)isoindoline-1,3-dione]	20.1%	0.89	1.02 ± 0.31 fold	1.53 ± 0.17 fold
COc1ccc(N2C(=O)c3ccccc3C2=O)cc1 [IRES-J013, 2-(4-Methoxyphenyl)isoindoline-1,3-dione]	19.2%	0.85	1.17 ± 0.21 fold	1.72 ± 0.06 fold
COc1ccc(CN2C(=O)C=CC2=O)cc1 [IRES-J002, 1-((4-Methoxyphenyl)methyl)-1H-pyrrole-2,5-dione]	28.6%	0.86	1.60 ± 0.18 fold	1.37 ± 0.21 fold
O=C1C=CC(=O)N1Cc1ccccc1 [IRES-J001, 1-Phenylmethyl-1H-pyrrole-2,5-dione]	30.2%	0.89	1.49 ± 0.05 fold	1.12 ± 0.13 fold
CN(C)c1ccc(N2C(=O)c3ccccc3C2=O)cc1 [IRES-J014, 2-(4-(Dimethylamino)phenyl)isoindoline-1,3-dione]	20.6%	0.84	1.86 ± 0.27 fold	1.33 ± 0.11 fold
O=C1C=CC(=O)N1Cc1ccc(F)cc1 [IRES-J003, 1-((4-Fluorophenyl)methyl)-1H-pyrrole-2,5-dione]	27.1%	0.88	0.97 ± 0.06 fold	1.19 ± 0.04 fold
COc1ccc(CN2C(=O)CCC2=O)c(OC)c1 [IRES-J006, 1-((2,4-Dimethoxyphenyl)methyl)pyrrolidine-2,5-dione]	20.1%	0.94	1.26 ± 0.10 fold	1.25 ± 0.19 fold
COCCCN1C(=O)c2ccccc2C1=O [IRES-J015, 2-(3-Methoxypropyl)isoindoline-1,3-dione]	18.3%	0.88	1.61 ± 0.15 fold	1.25 ± 0.24 fold
COc1ccc(CN2C(=O)C=CC2=O)c(OC)c1 [IRES-J000, 1-((2,4-Dimethoxyphenyl)methyl)-1H-pyrrole-2,5-dione]	25.6%	0.51	1.05 ± 0.21 fold	1.01 ± 0.03 fold
